Measured values: PubChem BioAssay (NCI)
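Exposure lasted 48 hours, with cells grown in 96-well plates and compounds tested at five concentrations. GI50 is the concentration that inhibits growth by half. At the TGI there is no net growth.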

Assays:
Experiment in all cases: DTP human tumour cell line panel, 48 h
COLO 205 colon = tested on: COLO 205 colon
DU-145 prostate = tested on: DU-145 prostate
HCC-2998 colon = tested on: HCC-2998 colon
HL-60(TB) leukemia = tested on: HL-60(TB) leukemia
HOP-92 NSCLC = tested on: HOP-92 NSCLC
K-562 leukemia = tested on: K-562 leukemia
NCI-H460 lung = tested on: NCI-H460 lung
SK-MEL-2 melanoma = tested on: SK-MEL-2 melanoma
SW-620 colon = tested on: SW-620 colon
UACC-257 melanoma = tested on: UACC-257 melanoma

| Structure (SMILES) | TGI (COLO 205 colon) [µM] | TGI (DU-145 prostate) [µM] | TGI (HCC-2998 colon) [µM] | TGI (HL-60(TB) leukemia) [µM] | TGI (HOP-92 NSCLC) [µM] | TGI (K-562 leukemia) [µM] | TGI (NCI-H460 lung) [µM] | TGI (SK-MEL-2 melanoma) [µM] | TGI (SW-620 colon) [µM] | TGI (UACC-257 melanoma) [µM] | GI50 (COLO 205 colon) [µM] | GI50 (DU-145 prostate) [µM] | GI50 (HCC-2998 colon) [µM] | GI50 (HOP-92 NSCLC) [µM] | GI50 (NCI-H460 lung) [µM] | GI50 (SK-MEL-2 melanoma) [µM] | GI50 (SW-620 colon) [µM] | GI50 (HL-60(TB) leukemia) [µM] | GI50 (K-562 leukemia) [µM] | GI50 (UACC-257 melanoma) [µM] |
| --- | --- | --- | --- | --- | --- | --- | --- | --- | --- | --- | --- | --- | --- | --- | --- | --- | --- | --- | --- | --- |
| CC1(C)OCN(c2ccc(Cl)cc2)Cn2c1nc1ccccc12 | 12 | > 100 | > 80.9 | 47.8 | > 100 | > 100 | > 100 | > 100 | > 100 | > 100 | – | – | – | – | – | – | – | – | – | – |
| COc1ccc(-c2ccc(-c3ccc(C(=N)N)cn3)s2)cc1Cl | 3.15 | 3.06 | 3.69 | – | 3.66 | – | 3.02 | 4.14 | 2.73 | – | 1.41 | 1.69 | 1.89 | 1.68 | 1.61 | 2.01 | 1.4 | – | – | – |
| CCS/C(Nc1ccccc1)=C(\C#N)C(=O)Nc1ccc(OC)cc1 | 11.2 | 49.8 | > 100 | > 100 | – | > 100 | 34.2 | > 100 | > 100 | > 100 | 3.06 | 3.48 | 6.56 | – | 3.14 | 3.01 | 2.55 | 2.87 | 0.436 | 21.2 |
| FC(F)(F)c1ccc(-c2cnc(Br)nc2NC2CCCCCC2)cc1 | > 100 | > 100 | > 100 | > 100 | – | > 100 | > 100 | – | > 100 | > 100 | 83.3 | > 100 | > 100 | – | 82.2 | – | 96.7 | 31.4 | 50.4 | 63.4 |
| C[Se]C(=O)CC1=C2C=C(F)C=CC2/C(=C\c2ccc(S(C)=O)cc2)C1C (centres undefined) | 6.36 | 1.16 | 6.79 | 2.41 | 0.417 | > 100 | 0.526 | 3.04 | 3.25 | 2.42 | 1.25 | 0.0187 | 1.63 | 0.165 | < 0.01 | 0.432 | 0.273 | 0.416 | 1.36 | 0.0875 |
| O=C(/C=C/c1ccco1)Nc1ncc(Cc2ccc(F)cc2)s1 | 0.137 | > 100 | > 100 | 0.185 | > 100 | > 100 | > 100 | > 100 | > 100 | > 100 | 0.0352 | 0.0901 | 0.224 | 8.56 | 0.0397 | 0.115 | 0.0443 | 0.0533 | 0.0385 | – |
| CCNCCNc1cc(-c2ccc(F)cc2)c(C#N)c2nc3ccccc3n12 | 5.74 | 14.9 | 14.2 | 4.36 | 8.12 | 4.64 | 10.8 | 28.3 | 10.1 | 3.82 | 2.32 | 4.01 | 3.83 | 2.82 | 3.36 | 14.2 | 2.95 | 2.09 | 2.15 | 2.1 |
| COc1ccc(C(O)c2cc3c(N)c(C(=O)Nc4cccc(Br)c4)sc3nc2C)cc1 (centres undefined) | 0.773 | 11.9 | 15.5 | 0.242 | 21.3 | > 100 | 3.61 | > 21.9 | > 100 | > 50.4 | 0.127 | 0.128 | 0.121 | 0.554 | 0.109 | 0.572 | 0.126 | 0.085 | 0.107 | 6.4 |
| Fc1ccc(-c2ncn(C3CCNCC3)c2-c2ccnc(Oc3cccc(F)c3)n2)cc1 | 9.67 | > 25 | > 25 | > 25 | – | 16.5 | > 21.8 | > 25 | > 14.7 | – | 5.09 | > 21.3 | 7.14 | – | 7.46 | > 25 | 5.54 | > 16.6 | 6.7 | – |
| CC(C)C(N)(C(=O)O)c1ccccc1 (centres undefined) | > 100 | > 100 | > 100 | > 100 | > 100 | > 100 | > 100 | > 100 | > 100 | > 100 | – | – | – | – | – | – | – | – | – | – |
| Cn1c(=O)c2[nH]c(COc3ccc(C(C)(C)C)cc3)nc2n(C)c1=O | > 100 | > 100 | > 100 | 50.3 | 30.6 | > 100 | > 100 | – | > 100 | 31.6 | 50.3 | 17.7 | 16.8 | 0.428 | 15.4 | – | 27 | 10.6 | 3.28 | 6.03 |
| O=C(/C=C\c1ccnc2ccccc12)c1ccc([N+](=O)[O-])cc1 | > 100 | > 100 | 29.9 | > 75.5 | > 65.3 | 18 | > 100 | > 100 | 4.79 | > 60.7 | 23.1 | 43.1 | 6.05 | 3.99 | > 68.1 | > 100 | 1.99 | 5.89 | 2.47 | 8.8 |
| COc1ccc2c3c(c(OCCCN(C)C)nc2c1)-c1ccc(Cl)cc1C3=O | 26.6 | 19.1 | 21 | 64.2 | 11.8 | > 100 | 10.2 | 40.3 | 12.9 | 33 | 5.57 | 6.08 | 5.19 | 1.78 | 2.26 | 19.6 | 1.56 | 18.9 | 2.38 | 16.4 |
| COc1ccc(NC(=O)c2cc(OC)c(OC)c(OC)c2)cc1O | > 100 | > 100 | > 100 | 21.6 | > 100 | > 100 | > 100 | > 100 | > 100 | – | 4.45 | 3.96 | 14.6 | 0.861 | 3 | 2.58 | 1.11 | 1.08 | 0.489 | – |
